Test: photoluminescence quantum yield (fraction); solvent given as SMILES
[1] = in O=P(c1ccccc1)(c1ccccc1)c1ccccc1Oc1ccccc1P(=O)(c1ccccc1)c1ccccc1

## c1ccc(-c2nc(-c3ccccc3)nc(-n3c4ccccc4c4cc(-n5c6ccccc6c6ccccc65)ccc43)n2)cc1
[1]
  photoluminescence quantum yield: 0.62

## O=C1/C(=C2\Sc3ccc(S(=O)(=O)Cl)cc3C2=O)Sc2ccc(S(=O)(=O)Cl)cc21
In C1COCCO1
  photoluminescence quantum yield: 0.949
In CS(C)=O
  photoluminescence quantum yield: 0.012

## N#CC(C#N)=Cc1ccc2nc(C#Cc3ccc(N(c4ccc(C#Cc5nc6ccc(C=C(C#N)C#N)cc6s5)cc4)c4ccc(C#Cc5nc6ccc(C=C(C#N)C#N)cc6s5)cc4)cc3)sc2c1
In Cc1ccccc1
  photoluminescence quantum yield: 0.61

## N#C/C(=C\c1ccc(C#N)cc1)c1nc(-c2ccccc2)c(-c2ccccc2)s1
In CC#N
  photoluminescence quantum yield: 0.101

## F[B-]1(F)n2c(nc(Br)c2Br)-c2cccc[n+]21
In C1CCCCC1
  photoluminescence quantum yield: 0.47
In C1CCOC1
  photoluminescence quantum yield: 0.32
In C1COCCO1
  photoluminescence quantum yield: 0.35
In CC#N
  photoluminescence quantum yield: 0.32
In CCCCCC
  photoluminescence quantum yield: 0.45
In CO
  photoluminescence quantum yield: 0.31
In ClC(Cl)Cl
  photoluminescence quantum yield: 0.41

## O=C1c2ccccc2S(=O)(=O)c2ccc(-n3c4ccccc4c4ccccc43)cc21
In c1cc(-c2cccc(-n3c4ccccc4c4ccccc43)c2)cc(-n2c3ccccc3c3ccccc32)c1
  photoluminescence quantum yield: 0.296

## COC(=O)c1cc(=O)n(C)c2cc(-c3cc4c5c(c3)CCCN5CCC4)sc12
In CC#N
  photoluminescence quantum yield: 0.02
In CCO
  photoluminescence quantum yield: 0.09
In CN(C)C=O
  photoluminescence quantum yield: 0.1
In CO
  photoluminescence quantum yield: 0.3
In CS(C)=O
  photoluminescence quantum yield: 0.17
In ClC(Cl)Cl
  photoluminescence quantum yield: 0.48
In ClCCl
  photoluminescence quantum yield: 0.25

## CCCCCCC(CCCCCC)N1C(=O)c2cccc3c(-c4ccc(OC)c5cccc(C)c45)ccc(c23)C1=O
In CCCCCC
  photoluminescence quantum yield: 0.34
In CCCCCCCCCCCCCC
  photoluminescence quantum yield: 0.34
In CCCCCCCCCCCO
  photoluminescence quantum yield: 0.28
In CCCCO
  photoluminescence quantum yield: 0.047
In CN(C)C=O
  photoluminescence quantum yield: 0.055
In Cc1ccccc1
  photoluminescence quantum yield: 0.19
In ClC(Cl)Cl
  photoluminescence quantum yield: 0.4

## COC(=O)[C@H](Cc1ccccc1)Nc1c(C(C)=O)c(=O)oc2cc(N(C)C)ccc12
In ClCCl
  photoluminescence quantum yield: 0.0043

## O=c1cc(C(F)(F)F)c2cc3c4c(c2o1)CCCN4CCC3
In CCC#N
  photoluminescence quantum yield: 0.76
In CCCCCCCl
  photoluminescence quantum yield: 0.95
In CCCCl
  photoluminescence quantum yield: 0.77
In CCO
  photoluminescence quantum yield: 0.62
In OCC(F)(F)F
  photoluminescence quantum yield: 0.47

## CCCCCCC(CCCCCC)N1C(=O)c2cccc3c(-c4ccc(OC)cc4)ccc(c23)C1=O
In CCCCCC
  photoluminescence quantum yield: 0.65
In CCCCCCCCCCCCCC
  photoluminescence quantum yield: 0.79
In CCCCCCCCCCCO
  photoluminescence quantum yield: 0.83
In CCCCO
  photoluminescence quantum yield: 0.83
In CN(C)C=O
  photoluminescence quantum yield: 0.82
In Cc1ccccc1
  photoluminescence quantum yield: 0.75
In ClC(Cl)Cl
  photoluminescence quantum yield: 0.83

## Cc1cc2c(o1)c(C)cc1ccc(=O)oc12
In C1CCCCC1
  photoluminescence quantum yield: 0.0001
In C1COCCO1
  photoluminescence quantum yield: 0.0001
In CC#N
  photoluminescence quantum yield: 0.001
In CCO
  photoluminescence quantum yield: 0.007
In OCC(F)(F)F
  photoluminescence quantum yield: 0.03

## CC(C)(C)c1cc2ccc3c(N(c4ccccc4)c4ccccc4)cc(N(c4ccccc4)c4ccccc4)c4ccc(c1)c2c34
In ClCCl
  photoluminescence quantum yield: 0.82

## c1ccc([B-]2(c3ccccc3)Oc3ccc4ccccc4c3-c3c4ccccc4cn[n+]32)cc1
In Cc1ccccc1
  photoluminescence quantum yield: 0.15

## COc1ccc(-c2csc(/C(C#N)=C/c3ccncc3)n2)cc1
In CC#N
  photoluminescence quantum yield: 0.04
In CCO
  photoluminescence quantum yield: 0.002
In CN(C)C=O
  photoluminescence quantum yield: 0.016
In CS(C)=O
  photoluminescence quantum yield: 0.038
In Cc1ccccc1
  photoluminescence quantum yield: 0.285
In ClCCl
  photoluminescence quantum yield: 0.129

## C(=C1c2ccccc2CCc2ccccc21)c1ccc(-c2cc(-c3ccc(C=C4c5ccccc5CCc5ccccc54)cc3)cc(-c3ccc(C=C4c5ccccc5CCc5ccccc54)cc3)c2)cc1
In C1CCOC1
  photoluminescence quantum yield: 0.0045

## CCCCN(CCCC)c1ccc(/C=C/c2ccc3nc(-c4ccccc4)c(/C=C/c4ccc(N(C)C)cc4)nc3c2)cc1
In C1COCCO1
  photoluminescence quantum yield: 0.17

## CCCCCCc1ccc(/C=C/c2ccc(CCCCCC)s2)s1
In Cc1ccccc1
  photoluminescence quantum yield: 0.051

## CCCCC1(c2ccccc2)Nc2c(-c3ccc(OC)cc3)ccc(-c3ccc(OC)cc3)c2N=C1c1ccccc1 (stereo not drawn)
In ClC(Cl)Cl
  photoluminescence quantum yield: 0.45

## c1ccc2c(c1)Sc1ccccc1N2c1ccc2c(ccc3nc4ccc5cc(N6c7ccccc7Sc7ccccc76)ccc5c4nc32)c1
In C1CCCCC1
  photoluminescence quantum yield: 0.06
In Cc1ccccc1
  photoluminescence quantum yield: 0.07

## CC(C)(C)c1cc(-c2c3cc(c(-c4cc(C(C)(C)C)cc(C(C)(C)C)c4)c4ccc([nH]4)c(-c4ccc([N+](=O)[O-])cc4)c4nc(c(-c5ccc([N+](=O)[O-])cc5)c5ccc2[nH]5)C=C4)N=C3)cc(C(C)(C)C)c1
In ClCCl
  photoluminescence quantum yield: 0.0263

## C(=C\c1nc2c3ccccc3c3ccccc3c2o1)/c1ccccc1
In CC#N
  photoluminescence quantum yield: 0.23

## COc1ccc(-c2ccc(-c3ccccc3)cc2)cc1
In C1CCCCC1
  photoluminescence quantum yield: 0.7

## CCn1c2ccccc2c2cc3c(cc21)c1ccccc1n3CC
In ClC(Cl)Cl
  photoluminescence quantum yield: 0.13

## COc1cc(OC)cc(C2=C3C(C)=C(I)C(C)=[N+]3[B-](F)(F)n3c(C)c(I)c(C)c32)c1
In CS(C)=O
  photoluminescence quantum yield: 0.03

## COc1ccc2c(c1)[n+]([O-])nc(N)[n+]2[O-]
In CC#N
  photoluminescence quantum yield: 0.0227
In O
  photoluminescence quantum yield: 0.0124

## c1ccc(-c2nc(-c3ccc(-c4nc(-c5ccccc5)c(-c5ccccc5)[nH]4)s3)[nH]c2-c2ccccc2)cc1
In CC#N
  photoluminescence quantum yield: 0.55

## CCC12C(=C3C(=C4c5ccc(-c6ccc(C)s6)cc5S(=O)(=O)C41CC)C(F)(F)C(F)(F)C3(F)F)c1ccc(-c3ccc(C)s3)cc1S2(=O)=O (stereo not drawn)
In C1COCCO1
  photoluminescence quantum yield: 0.78
In CC#N
  photoluminescence quantum yield: 0.67
In CCCCCC
  photoluminescence quantum yield: 0.72
In CCO
  photoluminescence quantum yield: 0.62

## CC1=CC(C)=[N+]2C1=Cc1c3ccccc3c(C#Cc3ccccc3)n1[B-]2(F)F
In CCCCCC
  photoluminescence quantum yield: 0.89
In CCCCCCCCO
  photoluminescence quantum yield: 0.88
In CCOC(C)=O
  photoluminescence quantum yield: 0.84
In CN(C)C=O
  photoluminescence quantum yield: 0.6
In ClCCl
  photoluminescence quantum yield: 0.89

## F[B-]1(F)n2c(Cl)ccc2C(c2c(Cl)cccc2Cl)=C2C=CC(NCc3ccccc3)=[N+]21
In CC#N
  photoluminescence quantum yield: 0.76
In CCCCCC
  photoluminescence quantum yield: 0.82
In CCOC(C)=O
  photoluminescence quantum yield: 0.67
In CO
  photoluminescence quantum yield: 0.72
In ClCCl
  photoluminescence quantum yield: 0.8

## CCCCc1ccc2c(c1)c1ccc3cccc4c3c1c1c2c2cccc3ccc5c6cc(CCCC)ccc6c4c1c5c32
In ClCCl
  photoluminescence quantum yield: 0.31

## c1cc2ccc1-c1ccc(cc1)-c1ccc([se]1)-c1ccc(cc1)-c1ccc(cc1)-c1ccc([se]1)-c1ccc(cc1)-c1ccc(cc1)-c1ccc([se]1)-c1ccc(cc1)-c1ccc(cc1)-c1ccc-2[se]1
In C1CCOC1
  photoluminescence quantum yield: 0.13

## CCCCN1C(=O)c2cccc3c(N(C)C)ccc(c23)C1=O
In Cc1ccccc1
  photoluminescence quantum yield: 0.95

## CC[N+](CC)=c1ccc2cc3c(=O)oc4cc5c(cc4c3oc-2c1)CCCN5C
In ClCCl
  photoluminescence quantum yield: 0.265
In O
  photoluminescence quantum yield: 0.009

## Cc1nc2cc(/C=C/c3ccc(N(C)C)cc3)ccc2nc1-c1ccccc1
In C1COCCO1
  photoluminescence quantum yield: 0.29
In CC#N
  photoluminescence quantum yield: 0.01
In ClCCl
  photoluminescence quantum yield: 0.09

## COc1ccc(-c2cnc(-c3cccnc3)o2)cc1OC
In ClCCl
  photoluminescence quantum yield: 0.98

## COc1ccc(/C=C2\OC(=O)c3cc(N)ccc32)cc1
In CC#N
  photoluminescence quantum yield: 0.38
In CC(C)=O
  photoluminescence quantum yield: 0.21
In CC(C)CO
  photoluminescence quantum yield: 0.44
In CC(C)O
  photoluminescence quantum yield: 0.4
In CCCO
  photoluminescence quantum yield: 0.46
In CCO
  photoluminescence quantum yield: 0.34
In CCOC(C)=O
  photoluminescence quantum yield: 0.2
In CCOCC
  photoluminescence quantum yield: 0.11
In CO
  photoluminescence quantum yield: 0.29

## Nc1ccc2c(-c3ccccc3C(=O)[O-])c3ccc(=[NH2+])cc-3oc2c1
In CC#N
  photoluminescence quantum yield: 0.95
In CCO
  photoluminescence quantum yield: 0.88
In CN(C)C=O
  photoluminescence quantum yield: 0.84
In O
  photoluminescence quantum yield: 0.85

## Cc1oc(-c2ccccc2)nc1C(=O)O
In C1CCCCC1
  photoluminescence quantum yield: 0.16
In CC#N
  photoluminescence quantum yield: 0.4
In CCO
  photoluminescence quantum yield: 0.52
In CCOC(C)=O
  photoluminescence quantum yield: 0.5
In O
  photoluminescence quantum yield: 0.51

## Cc1c2c(nc3ccccc13)-c1cc3c(cc1CC2)-c1nc2ccccc2c(C)c1CC3
In ClC(Cl)Cl
  photoluminescence quantum yield: 0.435

## CNC(=O)[C@H](C)NC(=O)c1cccc2c1C#Cc1c(NC(=O)[C@@H](NC(C)=O)C(C)C)cccc1OCCCO2
In CC#N
  photoluminescence quantum yield: 0.02
In ClCCl
  photoluminescence quantum yield: 0.03

## CC1(C)c2ccccc2N(c2ccc(-c3nc4cccc5c4n3-c3ccccc3C5(C)C)cc2)c2ccccc21
In Cc1ccccc1
  photoluminescence quantum yield: 0.34
[1]
  photoluminescence quantum yield: 0.51

## CCC1(CC)c2ccccc2-c2c1c1c(c3c2C(CC)(CC)c2cc(N(c4ccccc4)c4ccccc4)ccc2-3)C(CC)(CC)c2ccccc2-1
In C1CCOC1
  photoluminescence quantum yield: 0.49

## O=c1c2ccccc2sc2ccc(-n3c4ccccc4c4ccccc43)cc12
[1]
  photoluminescence quantum yield: 0.512

## C(#Cc1ccc(N(c2ccc(C#Cc3ccc(-c4cc(-c5ccccc5)nc(-c5ccccc5)c4)cc3)cc2)c2ccc(C#Cc3ccc(-c4cc(-c5ccccc5)nc(-c5ccccc5)c4)cc3)cc2)cc1)c1ccc(-c2cc(-c3ccccc3)nc(-c3ccccc3)c2)cc1
In C1CCOC1
  photoluminescence quantum yield: 0.12
In Cc1ccccc1
  photoluminescence quantum yield: 0.16

## Cn1c2ccccc2c(=O)c2ccccc21
In CS(C)=O
  photoluminescence quantum yield: 0.65

## CC1=CC(C)=[N+]2C1=Cc1c(C)c(C3=C(C)C4=Cc5c(C)cc(C)n5[B-](F)(F)[N+]4=C3C)c(C)n1[B-]2(F)F
In ClCCl
  photoluminescence quantum yield: 0.66

## O=[N+]([O-])c1ccc(C#Cc2ccc3ccc(C#Cc4ccc([N+](=O)[O-])cc4)cc3c2)cc1
In ClCCl
  photoluminescence quantum yield: 0.007

## Cc1ccc(-n2cccc2)cc1
In CC#N
  photoluminescence quantum yield: 0.4
In CCCCCC
  photoluminescence quantum yield: 0.28

## N#C/C(=C\c1ccc([N+](=O)[O-])cc1)c1nc(-c2ccccc2)cs1
In CC#N
  photoluminescence quantum yield: 0.051

## Nc1ccc2c(c1)C(=O)c1ccccc1-2
In C1CCCCC1
  photoluminescence quantum yield: 0.0086
In c1ccccc1
  photoluminescence quantum yield: 0.00099

## N[C@@H](Cn1nnc2cc(-c3ccc4c(c3)OCO4)ccc21)C(=O)O
In CO
  photoluminescence quantum yield: 0.02

## COc1ccc(-c2c3ccccc3c(-c3ccc(OC)cc3)c3cc4sc(C)cc4cc23)cc1
In ClCCl
  photoluminescence quantum yield: 0.52

## CC(C)[Si](C#Cc1ccc(C#C[Si](C(C)C)(C(C)C)C(C)C)c2nc3c4ccccc4c(=O)c4ccccc4c3nc12)(C(C)C)C(C)C
In ClCCl
  photoluminescence quantum yield: 0.08
